{
  "source": "patent US20190008832A1",
  "about": "“COMPOSITIONS FOR THE TREATMENT OF PRESBYOPIA” (priority 2015, published 2019)",
  "origin": "cited, not measured here",
  "test_system": "eye",
  "data": [
    {"smiles": "CC[C@@H]1C(=O)OC[C@@H]1Cc1cncn1C", "note": "[pilocarpine]", "values": [
      {"measurement": "Side effects in some patients", "setting": "WO2008/075149 compositions: pilocarpine HCl 1% and diclofenac sodium 0.5%", "value": "causes diarrhea and dyspepsia"},
      {"measurement": "Percentage of pilocarpine necessary to be effective in the treatment of presbyopia", "setting": "single active ingredient in a topical composition", "value": "greater than 0.5 % by weight"},
      {"measurement": "Tolerability of pilocarpine at percentages higher than 0.5% by weight", "setting": "topical, reddening of the eye, ocular and forehead pain, headaches", "value": "not tolerated"}
    ]}
  ]
}
